Laboratory results as given in US20230416258A1, “BENZ[…], AND PREPARATION METHOD THEREFOR AND USE THEREOF” (CHINA PHARMACEUTICAL UNIVERSITY, priority 2020, published 2023).
Read-outs that look alike come from different tables or passages of the source.

What was measured:
SD rats [1] = test: Test for drug-induced disappearance of righting reflex in rats; format: in vivo; conditions: single rapid bolus via tail vein
From the text: In anesthetic drug experiments, latency generally refers to the time from the start of administration to the loss of consciousness of the subject. The shorter latency is preferred, indicating a rapid onset of action after administration. The duration of anesthesia generally refers to the duration of time from the loss of consciousness to the restoration of consciousness of the subject. The duration of the drug will vary from animal model to animal species. Too long anesthesia may produce adverse cardiovascular and respiratory responses, such as adverse neurological effects to the subject, including sleepiness and dizziness; meanwhile, too short duration of anesthesia may affect the anesthesia effect, causing problems such as increase of anesthesia dosage during the operation.
SD rats (male, 200-280 g) were randomly grouped and subjected to a single administration by rapid bolus via the tail vein. The latency and duration of righting reflex in the rats were recorded.

SD rats [2] = test: Induction of anesthesia in rats by continuous infusion of drug for 20 min; format: in vivo; conditions: initial dose 20 mg/kg bolus, maintenance dose 0.2 (mg/kg)/min for 20 min, after infusion completed
Experimental: SD rats (male, 200-280 g) were randomly grouped and subjected to administration of an initial dose by rapid bolus via the tail vein, followed by a continuous infusion with a maintenance dose for 20 min.
After the infusion was completed, the duration of the righting reflex and the time from wake-up to recovery in rats were recorded.

[3] = In vitro plasma half-life of drug; format: in vitro ADME, SD rats; conditions: plasma (heparin sodium); SD rat plasma, 37° C.
Experimental: Preparation of plasma: after the SD rats were fasted and kept with water for 12 h, blood was collected through orbital venous plexus. The freshly collected blood was added into a centrifuge tube containing heparin sodium and centrifuged at 5000 rpm for 10 min at 4° C. The supernatant was slowly pipetted and subpackaged. Finally, the collected SD rat plasma was sealed, marked, and stored at −20° C. for later use.
Preparation of target compound sample: the target compound was precisely weighed by an analytical balance and prepared into a stock solution at a concentration of 2 mg/mL (solvent: Vacetone:VTween 80:Vnormal saline=1:1:3) for later use.
Determination of in vitro half-life of target compound sample: 20 μL of test compound stock solution and 80 μL of rat plasma were mixed uniformly. Nine parallel ep tubes were taken, marked as corresponding test tubes of 0 min, 1 min, 2 min, 3 min, 5 min, 10 min, 15 min, 20 min, and 30 min, respectively, and placed in a water bath at 37° C. for incubation for 0 min, 1 min, 2 min, 3 min, 5 min, 10 min, 15 min, 20 min, and 30 min, respectively. 50 μL of mixed solution were taken from the corresponding ep tube at each time point, and […] of acetonitrile was added for precipitating protein. The mixture was vortexed for 10 min using a mixer and centrifuged at 12000 rpm for 15 min. Then, the supernatant was centrifuged at 12000 rpm for 10 min. The optimal detection method for the target compound in the MRM mode was determined using Intellistat software in UPLC-MS/MS, the peak area of the corresponding mass spectrum was integrated, and the plasma half-life of the compound was calculated.

KM mice = test: Test for drug-induced disappearance of righting reflex in mice; format: in vivo; conditions: single rapid bolus via tail vein
Summary of the method: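 Female KM mice (18–25 g), randomly grouped, given a single rapid bolus via tail vein. Latency (administration to loss of righting reflex) and duration (loss to recovery) recorded.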

hCMEC/D3 cells = test: Rate of drug passing through in vitro blood-brain barrier (Transwell); format: in vitro ADME; conditions: hCMEC/D3 monolayer, compound 0.1 mg/mL
Experimental: A Transwell device (pore size: 5.0 μm) was placed in a 24-well cell culture well; then hCMEC/D3 cells at 1×10^5 cells/mL were transferred to the upper microwells of Transwell at 150 μL/well, and cell culture medium was added to the lower microwells. After the bottom was covered by a single layer of the cells, the medium in the wells was replaced with EBM-2 complete medium containing 1% FBS, and the cells were cultured in a CO2 incubator for 10 days until a fully dense single layer of the cells was formed. When a fully dense single layer of the cells was formed, the compound at 0.1 mg/mL was added to the lower medium, and after 5 min, the concentration of the compound in the upper medium was measured to calculate the permeability:
Pcompound%=Cupper compound/Clower compound×100%

[4] = tested on: GABA-activated Cl− current (GABAA receptor) in HEK 293T cells; test: Effect of drugs on GABA-activated current in cells by cell patch clamp; format: cell-based; conditions: for Enhancement percentage Emax for 2 μM GABA current (within 3-30 μM): corresponding concentration 20 μM
Experimental: Test compounds were dissolved at various concentrations in an extracellular buffer (140 mM NaCl, 4.7 mM KCl, 10 mM HEPES, 2 mM CaCl2), 10 mM glucose, 1 mM MgCl2, pH 7.4). HEK 293T cells were seeded on glass coverslips and cultured in DMEM media at 37° C. with 5% CO2 for 24 h. GABA Cl^− current was subjected to whole cell recording using an HEKA EPC 10USB patch clamp amplifier. 2 μM GABA was used for exciting Cl^− current, with the membrane potential clamped at −60 mV. The cells were treated with the test compound and 2 μM GABA simultaneously, and the induction effect on and Emax of Cl^− current in the same cell were recorded.
Maximum enhancement percentage Emax for 2 μM GABA current and corresponding concentration (μM): 100% for normal humans. The greater the percentage, the lower the corresponding concentration, and the greater the depth of anesthesia.

[5] = read-out: Positive enhancement EC50 (μM) for 2 μM GABA-induced current, −60 mV
[6] = 2 μM GABA, −60 mV, read-out: Positive enhancement EC50 (μM) for 2 μM GABA-induced current

| SMILES | Latency (SD rats [1]) | Duration of anesthesia (SD rats [2]) | Time from wake-up to recovery (SD rats [2]) | half-life at 0.4 mg/mL [3] | Duration (KM mice; 30 mg/kg) | Latency (KM mice; 30 mg/kg) | In vitro blood-brain barrier, compound permeability at 5 min (hCMEC/D3 cells) | EC50 [4, 5] | Enhancement percentage Emax for 2 μM GABA current (within 3-30 μM) ([4]; −60 mV) | Duration (KM mice; 60 mg/kg) | Latency (KM mice; 60 mg/kg) | Duration (KM mice; 100 mg/kg) | Latency (KM mice; 100 mg/kg) | Duration (SD rats [1]) | EC50 [4, 6] |
| --- | --- | --- | --- | --- | --- | --- | --- | --- | --- | --- | --- | --- | --- | --- | --- |
| COC(=O)CC[C@@H]1N=C(c2ccccc2F)c2cc(Br)ccc2-n2c(S)nnc21 [Compound 4, methyl (S)-3-(8-bromo-6-(2-fluorophenyl)-1-mercapto-4H-benzo[f][1,2,4]triazolo[4,3-a][1,4]diazepin-4-yl)propionate] | 0.35 min | 5.21 min | 15.6 min | 104 s | 9.21 min | 0.88 min | 68.6% | 0.69 µM | 252% (20 μM) | – | – | – | – | – | – |
| CCCSc1nnc2n1-c1ccc(Br)cc1C(c1ccccc1Cl)=N[C@H]2CCC(=O)OC [Compound 30, methyl (S)-3-(8-bromo-6-(2-chlorophenyl)-1-(propylthio)-4H-benzo[f][1,2,4]triazolo[4,3-a][1,4]diazepin-4-yl)propionate] | – | – | – | 27 s | 7.44 min | 0.42 min | – | – | – | – | – | – | – | – | – |
| COC(=O)CC[C@@H]1N=C(c2ccccc2Cl)c2cc(Cl)ccc2-n2c(SCCO)nnc21 [Compound 32, methyl (S)-3-(8-chloro-6-(2-chlorophenyl)-1-((2-hydroxyethyl)thio)-4H-benzo[f][1,2,4]triazolo[4,3-a][1,4]diazepin-4-yl)propionate] | – | – | – | 16.2 s | 20.73 min | 0.73 min | – | – | – | – | – | – | – | – | – |
| COC(=O)CC[C@@H]1N=C(c2ccccc2Cl)c2cc(Br)ccc2-n2c(SCCO)nnc21 [Compound 33, methyl (S)-3-(8-bromo-6-(2-chlorophenyl)-1-((2-hydroxyethyl)thio)-4H-benzo[f][1,2,4]triazolo[4,3-a][1,4]diazepin-4-yl)propionate] | 0.52 min | 17.3 min | 20.2 min | 53.4 s | – | – | 83.4% | 0.44 µM | 279% (20 μM) | 6.41 min | 0.21 min | 12.38 min | 0.22 min | – | – |
| COC(=O)CC[C@@H]1N=C(c2ccccc2Cl)c2cc(Cl)ccc2-n2c(SCCN)nnc21 [Compound 35, methyl (S)-3-(8-chloro-6-(2-chlorophenyl)-1-((2-aminoethyl)thio)-4H-benzo[f][1,2,4]triazolo[4,3-a][1,4]diazepin-4-yl)propionate] | 0.25 min | 51.3 min | 33.8 min | 12.6 s | – | – | 84.6% | 0.36 µM | 318% (20 μM) | 40.26 min | 0.18 min | – | – | – | – |
| COC(=O)CC[C@@H]1N=C(c2ccccc2Cl)c2cc(Br)ccc2-n2c(SCCN)nnc21 [Compound 36, methyl (S)-3-(8-bromo-6-(2-chlorophenyl)-1-((2-aminoethyl)thio)-4H-benzo[f][1,2,4]triazolo[4,3-a][1,4]diazepin-4-yl)propionate] | 0.28 min | 9.37 min | 17.5 min | 34.2 s | – | – | 71.6% | 0.58 µM | 227% (20 μM) | 8.82 min | 0.34 min | – | – | – | – |
| COC(=O)CC[C@@H]1N=C(c2ccccc2Cl)c2cc(Br)ccc2-n2c(SC(C)=O)nnc21 [Compound 39, methyl (S)-3-(8-bromo-6-(2-chlorophenyl)-1-(acetylthio)-4H-benzo[f][1,2,4]triazolo[4,3-a][1,4]diazepin-4-yl)propionate] | 0.38 min | 7.86 min | 11.2 min | 25.8 s | – | – | 82.6% | 0.88 µM | 272% (20 μM) | 9.67 min | 0.19 min | – | – | – | – |
| COC(=O)CC[C@@H]1N=C(c2ccccc2Cl)c2cc(Cl)ccc2-n2c(SCC(=O)N3CCN(C)CC3)nnc21 [Compound 129, methyl (S)-3-(8-chloro-6-(2-chlorophenyl)-1-((2-(4-methylpiperazin-1-yl)2-oxyethyl)thio)-4H-benzo[f][1,2,4]triazolo[4,3-a][1,4]diazepin-4-yl)propionate] | 0.37 min | 10.22 min | 17.7 min | – | 13.27 min | 0.56 min | 75.9% | – | 257% (20 μM) | – | – | – | – | 17.28 min | 0.42 µM |
| COC(=O)CC[C@@H]1N=C(c2ccccc2Cl)c2cc(Cl)ccc2-n2c(Sc3cn(C)cn3)nnc21 [Compound 141, methyl (S)-3-(8-chloro-6-(2-chlorophenyl)-1-((1-methyl-1H-imidazol-4-yl)thio)-4H-benzo[f][1,2,4]triazolo[4,3-a][1,4]diazepin-4-yl)propionate] | 0.21 min | 13.21 min | 22.19 min | – | 8.76 min | 0.74 min | 76.6% | 0.61 µM | 295% (20 μM) | – | – | – | – | – | – |
| COC(=O)CC[C@@H]1N=C(c2ccccc2F)c2cc(Br)ccc2-n2c1n[nH]c2=S [Tautomer of compound 4, methyl (S)-3-(8-bromo-6-(2-fluorophenyl)-1-thio-2,4-dihydro-1H-benzo[f][1,2,4]triazolo[4,3-a][1,4]diazepin-4-yl) propionate] | 0.48 min | 4.84 min | 10.3 min | – | 2.95 min | 0.38 min | 75.8% | – | 238% (20 μM) | – | – | – | – | 15.4 min | 0.65 µM |
